From paper PMC8196787, “Design and Pharmacodynamics of Recombinant Fungus Defensin NZL with Improved Activity against Staphylococcus hyicus In Vitro and In Vivo” (International Journal of Molecular Sciences, 2021)
In brackets after ≈: the same amount, converted by molar mass. Several values for one entry are separate records, joined by “and”; a condition that tells them apart may be missing. Identical values can stand only once. Like-named read-outs stand apart in the source and are kept apart here. Positions of bridges follow the written chain, without caps; N, C: chain ends. Residues, ends and D or L forms follow the SMILES beside them.

Tests used:
S. aureus ATCC 25923 = test: microbe, parasite or virus in culture; assay type: cell-based; settings: MHB, 37 °C, 16–20 h, triplicate
Protocol: (§1) The microbroth dilution method was used to evaluate the MIC values of new derivative peptides. […] The MIC value was defined as the lowest concentration where no visible bacteria growth occurred after overnight incubation. CRO was used as the positive control. All assays were conducted in triplicate.

S. aureus ATCC 43300 = test: microbe, parasite or virus in culture; assay type: cell-based; settings: read-out: MIC
Protocol: as §1

S. hyicus ACCC 61734 = test: microbe, parasite or virus in culture; assay type: cell-based; settings: for MIC: S. hyicus ACCC 61734 (clinical strain), microbroth dilution, MHB, 37 °C, 16–20 h, triplicate, read-out: MIC
Protocol: as §1

S. hyicus NCTC 10350 [1] = test: microbe, parasite or virus in culture; assay type: cell-based; settings: MHB, 37 °C, 16–20 h, triplicate
Protocol: as §1

S. hyicus NCTC 10350 [2] = test: Time-killing curves; assay type: cell-based
Protocol: Time-kill curves were performed to assess the bactericidal rates of peptides against S. hyicus NCTC 10350 [25]. […] The samples were taken at regular intervals for colony counting. Cells treated with PBS and CRO were used as the negative control and positive control.

[3] = tested on: intracellular S. hyicus NCTC 10350 in Hacat cells; assay type: cell-based; settings: 24 h treatment, mean, n = 3; for Killing rate of intracellular S. hyicus: 1000× MIC
Protocol: Hacat cells (2.5 × 10^5 cells/mL) were dispensed into a 12-well plate for 24 h. Besides, the mid-log phase S. hyicus NCTC 10350 (2.5 × 10^7 CFU/mL) were coincubated with Hacat cells for 0.5 h. Then, lysostaphin was supplemented to kill extracellular bacteria. Hereafter, cells were treated with peptides or CRO for 24 h and lysed with lysis buffer. The intracellular bacteria were processed for colony counting.

S. hyicus NCTC 10350 [4] = test: Mouse peritonitis model, survival; assay type: in vivo; settings: 7 days
Protocol: The mice (6 mice/group) were intraperitoneally infected with the exponential phase S. hyicus NCTC 10350 cells (1 × 10^9 CFU/mL, 1 mL) to establish a mouse peritonitis model. […] Survival of mice was recorded daily for 7 days.

S. hyicus NCTC 10350 [5] = test: Mouse peritonitis model, bacterial translocation; assay type: in vivo; settings: 24 h post-treatment, mean, n = 5
Protocol: (§2) Likewise, mice (15 mice/group) were injected with the exponential phase S. hyicus NCTC 10350 cells (1 × 10^9 CFU/mL, 1 mL) and treated with 10 mg/kg peptides or 60 mg/kg CRO. After 2 and 24 h post-treatment, sera were collected to test the levels of cytokines using enzyme linked immunosorbent assay (ELISA) kit. To evaluate bacterial translocation, organs were harvest from mice at 24-h post-treatment for colony counting; then, organs were removed from mice at 5 d post-treatment and observed through a light microscope to assess organ injury. The uninfected mice, the treated mice with CRO or PBS were served as the blank control, positive and negative control, respectively.

IL-1β = test: Mouse peritonitis model, serum cytokine ELISA; assay type: in vivo
Protocol: as §2

IL-6 = test: Mouse peritonitis model, serum cytokine ELISA; assay type: in vivo
Protocol: as §2

TNF-α = test: Mouse peritonitis model, serum cytokine ELISA; assay type: in vivo
Protocol: as §2

mouse erythrocytes = test: Hemolysis; assay type: cell-based; settings: at 256 μg/mL; 8% (v/v) mouse erythrocytes in 0.9% NaCl, 37 °C, 1 h, 540 nm; n = 3
Protocol: The hemolytic activity of peptides against fresh mouse erythrocytes was evaluated as described previously. In brief, 8% (v/v) erythrocyte solution in 0.9% NaCl was mixed with peptide solution (1–256 μg/mL) in an equal volume; then the mixtures were incubated at 37 °C for 1 h, centrifuged at 5000 rpm for 5 min and measured at 540 nm on a microplate reader. The absorbance of 0.9% NaCl (A0) and 0.1% Triton X-100 (A100) was used as controls. The hemolysis percentages of peptide were calculated by the following equation: Hemolysis (%) = [(A − A0)/(A100 − A0)] × 100.

Hacat cells = test: Cytotoxicity, MTT assay; assay type: cell-based; settings: within 256 μg/mL (1–256 μg/mL), n = 3
Protocol: The cytotoxicity of peptides toward Hacat cells was determined by the 3-(4,5-dimethylthiazol-2-yl)-2,5-diphenyltetrazolium bromide (MTT) assay according to a previous study.

S. hyicus NCTC 10350 [6] = test: Thermal stability, inhibition zone assay; assay type: physicochemical; settings: 1 h, 64 μg/mL, inhibition zone against S. hyicus NCTC 10350, triplicate
Protocol: (§3) The stability of NZL or NZ2114 against S. hyicus NCTC 10350 was conducted by inhibition zone assays. To evaluate the thermal stability, 64 μg/mL NZL or NZ2114 was incubated at different temperatures (20 °C, 40 °C, 60 °C, 80 °C, and 100 °C) for 1 h. Besides, aliquots of NZL or NZ2114 were dissolved in different pH buffers in a range from 2.0 to 10.0 at 37 °C for 3 h to analyze the pH stability. NZL or NZ2114 was mixed with pepsin or trypsin solutions at a ratio of 10:1 (w/w) to determine the protease stability. The untreated peptides and buffers alone were used as positive controls and negative controls, respectively. All assays were conducted in triplicate.

S. hyicus NCTC 10350 [7] = test: pH stability, inhibition zone assay; assay type: physicochemical; settings: 3 h, triplicate
Protocol: as §3

S. hyicus NCTC 10350 [8] = test: Mouse peritonitis model, organ injury by light microscope; assay type: in vivo; settings: 10 mg/kg, organs harvested at 5 d
Protocol: as §2

[9] = microbroth dilution, read-out: MIC

CO/N=C(\C(=O)N[C@@H]1C(=O)N2C(C(=O)O)=C(CSc3nc(=O)c(=O)[nH]n3C)CS[C@H]12)c1csc(N)n1 [CRO, ceftriaxone, reference compound]
MIC (S. aureus ATCC 25923; Staphylococcus aureus, ATCC25923, microbroth dilution, read-out: MIC): 4 µg/mL and 6.04 µM | MIC (S. aureus ATCC 43300; Staphylococcus aureus, ATCC43300, S. aureus ATCC 43300, microbroth dilution, MHB, 37 °C, 16–20 h, triplicate): 12.1 µM | MIC (S. aureus ATCC 43300; Staphylococcus aureus, ATCC43300): 8 µg/mL | MIC (S. hyicus ACCC 61734; Staphylococcus hyicus, ACCC61734): 4 µg/mL and 6.04 µM | MIC (S. hyicus NCTC 10350 [1]; Staphylococcus hyicus, NCTC10350, microbroth dilution, read-out: MIC): 8 µg/mL and 12.1 µM | Bacterial count at regrowth (S. hyicus NCTC 10350 [2]; 2× MIC, at 24 h): 5.65 Log10 CFU/mL | Decrease of intracellular S. hyicus ([3]; 1× MIC, colony counting): 88.53% | Decrease of intracellular S. hyicus ([3]; 5× MIC): 89.25% | Decrease of intracellular S. hyicus ([3]; 10× MIC): 83.87% | Killing rate of intracellular S. hyicus [3]: 97.6% | Survival rate (S. hyicus NCTC 10350 [4]; 30 mg/kg and 60 mg/kg i.p. at 2 h and 8 h post-infection, compared with NZL 5 mg/kg and 10 mg/kg): identical survival rates with NZL | Bacterial counts in blood (S. hyicus NCTC 10350 [5]; 60 mg/kg): 1.02 Log10 CFU/0.1 g | Bacterial counts in kidneys (S. hyicus NCTC 10350 [5]; 60 mg/kg): 4.69 Log10 CFU/0.1 g | Bacterial counts in livers (S. hyicus NCTC 10350 [5]; 60 mg/kg): 4.35 Log10 CFU/0.1 g | Bacterial counts in lungs (S. hyicus NCTC 10350 [5]; 60 mg/kg): 5.21 Log10 CFU/0.1 g | Bacterial counts in spleens (S. hyicus NCTC 10350 [5]; 60 mg/kg): 5.19 Log10 CFU/0.1 g | Serum level of IL-1β (IL-1β; 60 mg/kg, 2 h after treatment): 94.75 pg/mL | Serum level of IL-1β (IL-1β; 60 mg/kg, 24 h after treatment): 11.60 pg/mL | Serum level of IL-6 (IL-6; 60 mg/kg, 2 h after treatment): 981.56 pg/mL | Serum level of IL-6 (IL-6; 60 mg/kg, 24 h after treatment): 85.74 pg/mL | Serum level of TNF-α (TNF-α; 60 mg/kg, 2 h after treatment): 233.16 pg/mL | Serum level of TNF-α (TNF-α; 60 mg/kg, 24 h after treatment): 3.43 pg/mL

CC[C@H](C)[C@@H]1NC(=O)[C@H](CO)NC(=O)[C@H](CCCCN)NC(=O)[C@@H]2CSSC[C@@H](C(=O)N[C@@H](Cc3ccc(O)cc3)C(=O)O)NC(=O)[C@H](CCCCN)NC(=O)[C@@H]3CSSC[C@H](NC(=O)[C@H](CCC(N)=O)NC(=O)[C@H]([C@@H](C)CC)NC(=O)[C@H](CC(=O)O)NC(=O)[C@H](CC(=O)O)NC(=O)[C@H](CCC(=O)O)NC(=O)[C@H](CO)NC(=O)[C@H](Cc4c[nH]c5ccccc45)NC(=O)[C@@H]4CCCN4C(=O)CNC(=O)[C@H](CC(N)=O)NC(=O)[C@@H](NC(=O)CNC(=O)[C@H](Cc4ccccc4)NC(=O)CN)CSSC[C@H](NC(=O)[C@H](Cc4ccc(O)cc4)NC(=O)CNC(=O)CNC(=O)[C@H](CCCCN)NC(=O)[C@H](Cc4ccc(O)cc4)NC(=O)CNC(=O)[C@H](CCCCN)NC1=O)C(=O)N[C@@H](C)C(=O)N[C@@H](CCCCN)C(=O)NCC(=O)NCC(=O)N[C@@H](Cc1ccccc1)C(=O)N[C@@H](C(C)C)C(=O)N3)C(=O)N[C@@H](Cc1c[nH]cn1)C(=O)N[C@@H](CC(N)=O)C(=O)N[C@@H](Cc1c[nH]cn1)C(=O)N2 [NZL] (H-GFGCNGPWSEDDIQCHNHCKSIKGYKGGYCAKGGFVCKCY-OH; disulfide 4-30, 15-37, 19-39; N-terminus and C-terminus assumed)
MIC (S. aureus ATCC 25923; microbroth dilution): 4 µg/mL | MIC (S. aureus ATCC 25923; [9]): 0.92 µM | MIC (S. aureus ATCC 43300; S. aureus ATCC 43300, microbroth dilution, MHB, 37 °C, 16–20 h, triplicate): 0.46 µM | MIC (S. hyicus ACCC 61734): 0.23 µM (≈ 1 µg/mL) | Change of MIC against S. hyicus ACCC 61734 compared with NZ2114 (S. hyicus ACCC 61734; clinical strain, NZL vs NZ2114): four-fold | MIC (S. hyicus NCTC 10350 [1]; microbroth dilution): 4 µg/mL | MIC (S. hyicus NCTC 10350 [1]; [9]): 0.92 µM | Reduction of bacterial counts (S. hyicus NCTC 10350 [2]; 1× MIC, MHB): 7.37 Log10 CFU/mL | Time within which S. hyicus NCTC 10350 cells were killed completely (S. hyicus NCTC 10350 [2]; 2× and 4× MIC, 1 × 10^5 CFU/mL in MHB, colony counting): ≤ 8 h | Decrease of intracellular S. hyicus ([3]; 10× MIC): 84.95% | Killing rate of intracellular S. hyicus [3]: 99.96% | Maximum hemolysis (mouse erythrocytes): 1.11% | Minimum cell viability (Hacat cells): 60.28% | Thermal stability (S. hyicus NCTC 10350 [6]; 20 to 80 °C): good thermal stability | Activity after heating (S. hyicus NCTC 10350 [6]; 100 °C): no activity | pH stability (S. hyicus NCTC 10350 [7]; pH 2 to 10, 37 °C, inhibition zone against S. hyicus NCTC 10350): retained strong stable activity | Activity in the acidic environment (S. hyicus NCTC 10350 [7]; pH 4, 37 °C, inhibition zone against S. hyicus NCTC 10350, relative to untreated peptide): 94% | Survival rate (S. hyicus NCTC 10350 [4]; 5 mg/kg i.p. at 2 h and 8 h post-infection, ICR mice, S. hyicus NCTC 10350 10^9 CFU i.p., 6 mice/group): 50% | Survival rate (S. hyicus NCTC 10350 [4]; 10 mg/kg i.p. at 2 h and 8 h post-infection, ICR mice, S. hyicus NCTC 10350 10^9 CFU i.p., 6 mice/group): 83.3% | Bacterial counts in blood (S. hyicus NCTC 10350 [5]; 10 mg/kg): 0.16 Log10 CFU/0.1 g | Bacterial counts in kidneys (S. hyicus NCTC 10350 [5]; 10 mg/kg): 0.25 Log10 CFU/0.1 g | Bacterial counts in livers (S. hyicus NCTC 10350 [5]; 10 mg/kg): 0.34 Log10 CFU/0.1 g | Bacterial counts in lungs (S. hyicus NCTC 10350 [5]; 10 mg/kg): 0.62 Log10 CFU/0.1 g | Bacterial counts in spleens (S. hyicus NCTC 10350 [5]; 10 mg/kg): 0.58 Log10 CFU/0.1 g | Serum level of IL-1β (IL-1β; 10 mg/kg, 2 h after treatment): 74.00 pg/mL | Serum level of IL-1β (IL-1β; 10 mg/kg, 24 h after treatment): 24.02 pg/mL | Serum level of IL-6 (IL-6; 10 mg/kg, 2 h after treatment): 1029.28 pg/mL | Serum level of IL-6 (IL-6; 10 mg/kg, 24 h after treatment): 44.92 pg/mL | Serum level of TNF-α (TNF-α; 10 mg/kg, 2 h after treatment): 184.14 pg/mL | Serum level of TNF-α (TNF-α; 10 mg/kg, 24 h after treatment): 5.75 pg/mL | Organ injury (livers, spleens, lungs, kidneys) (S. hyicus NCTC 10350 [8]): apparently less damaged
